# Test results: patent US8138194B2, “Fused bicyclic pyrimidine compounds as aurora kinase inhibitors” (National Health Research Institutes, priority 2008, dated 2012)
# pIC50: −log10 of the molar value. “And” between values parts separate entries of the source, which are not always exact repeats. Equal entries are not always repeated.
# Biological target: T1, GST-tAurora A (123-401aa) fusion protein (Homo sapiens, UniProt O14965)
# T1 construct: GST-tAurora A (123-401aa) fusion protein; made in house; host or cells: Sf9 insect cells (baculovirus, pBacPAK8)
# T1 sequence (O14965 123-401): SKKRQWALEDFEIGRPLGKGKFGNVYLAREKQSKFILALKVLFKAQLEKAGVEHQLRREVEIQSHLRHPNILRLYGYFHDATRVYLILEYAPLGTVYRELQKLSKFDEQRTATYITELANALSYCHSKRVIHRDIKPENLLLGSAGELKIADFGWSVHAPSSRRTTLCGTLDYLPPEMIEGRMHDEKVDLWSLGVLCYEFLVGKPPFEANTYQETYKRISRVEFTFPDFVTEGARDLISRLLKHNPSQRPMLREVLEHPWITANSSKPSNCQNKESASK
# Test: Aurora Kinase A luminescent kinase assay
# Type: biochemical
# Conditions: IC50 (concentration of a test compound at which activity of 50% of Aurora A is inhibited)
# Description: The Aurora A catalytic domain with an N-terminal GST tag was constructed in pBacPAK8 plasmid and expressed in sf9 cells. […] To concentrate GST-tAurora A, buffer was replaced with Tris buffer (100 mM Tris (pH 7.5), 300 mM NaCl, 1 mM EDTA, 4 mM DTT) using Amicon ultra-15 (MWCO:30K, Millipore) to 2.4 mg/ml. After the addition of equal volume of glycerol and 0.04% Triton X-100, the proteins were stored aliquoted at −80° C.
# Briefly, a test compound, enzyme, substrate-tetra(LRRWSLG), DTT and ATP were dissolved in Aur buffer (50 mM Tris-HCl pH 7.4, 10 mM NaCl, 10 mM MgCl2, and 100 μg/ml BSA) individually before the assay. […] 5 μM ATP (5 μl), 1 mM DTT (5 μl) and 0.1 mM tetra(LRRWSLG) peptide substrate (5 μl) were added into the reactions of test compounds and GST-tAurora A. The reactions were incubated at 37° C. for 90 min. 50 μl of Kinase-Glo Plus Reagent (V3771, Promega) was added into the reactions, followed by the incubation at 25° C. for 20 min.
row,pIC50,SMILES
1,> 6.00,"Nc1ccc(CCNc2ncnc3oc(-c4ccccc4)c(-c4ccccc4)c23)cc1 [Compound 3, N-(4-aminophenethyl)-5,6-diphenylfuro[2,3-d]pyrimidin-4-amine]"
2,> 6.00,Oc1ccc(CCNc2ncnc3oc(-c4ccccc4)c(-c4ccccc4)c23)cc1 [Compound 4]
3,6.40 to 7.35 and > 6.00,O=C(Nc1ccc(CCNc2ncnc3oc(-c4ccccc4)c(-c4ccccc4)c23)cc1)c1ccccc1 [Compound 5]
4,> 6.00,NC(=O)Nc1ccc(CCNc2ncnc3oc(-c4ccccc4)c(-c4ccccc4)c23)cc1 [Compound 7]
5,6.40 to 7.35 and > 6.00,CNC(=O)Nc1ccc(CCNc2ncnc3oc(-c4ccccc4)c(-c4ccccc4)c23)cc1 [Compound 8]
6,6.40 to 7.35 and > 6.00,CN(C)C(=O)Nc1ccc(CCNc2ncnc3oc(-c4ccccc4)c(-c4ccccc4)c23)cc1 [Compound 9]
7,6.40 to 7.35 and > 6.00,O=C(NCc1ccccc1)Nc1ccc(CCNc2ncnc3oc(-c4ccccc4)c(-c4ccccc4)c23)cc1 [Compound 10]
8,6.40 to 7.35 and > 6.00,O=C(Nc1ccc(CCNc2ncnc3oc(-c4ccccc4)c(-c4ccccc4)c23)cc1)Nc1cccc(Cl)c1 [Compound 15]
9,> 6.00,O=C(Nc1ccc(CCNc2ncnc3oc(-c4ccccc4)c(-c4ccccc4)c23)cc1)Nc1cccc(Br)c1 [Compound 16]
10,6.40 to 7.35 and > 6.00,O=C(NCCN1CCOCC1)Nc1ccc(CCNc2ncnc3oc(-c4ccccc4)c(-c4ccccc4)c23)cc1 [Compound 20]
11,6.40 to 7.35 and > 6.00,Cc1cccc(NC(=O)Nc2ccc(CCNc3ncnc4oc(-c5ccccc5)c(-c5ccccc5)c34)cc2)c1 [Compound 28]
12,6.40 to 7.35 and > 6.00,N#Cc1cccc(NC(=O)Nc2ccc(CCNc3ncnc4oc(-c5ccccc5)c(-c5ccccc5)c34)cc2)c1 [Compound 30]
13,6.40 to 7.35 and > 6.00,CC(=O)c1cccc(NC(=O)Nc2ccc(CCNc3ncnc4oc(-c5ccccc5)c(-c5ccccc5)c34)cc2)c1 [Compound 31]
14,6.40 to 7.35 and > 6.00,O=C(Nc1ccc(CCNc2ncnc3oc(-c4ccccc4)c(-c4ccccc4)c23)cc1)Nc1cccc([N+](=O)[O-])c1 [Compound 32]
15,> 6.00,COc1cccc(NC(=O)Nc2ccc(CCNc3ncnc4oc(-c5ccccc5)c(-c5ccccc5)c34)cc2)c1 [Compound 40]
16,6.40 to 7.35 and > 6.00,O=C(Cc1ccccc1)Nc1ccc(CCNc2ncnc3oc(-c4ccccc4)c(-c4ccccc4)c23)cc1 [Compound 41]
17,> 6.00 and 6.40 to 7.35,O=C(Nc1ccc(CCNc2ncnc3oc(-c4ccccc4)c(-c4ccccc4)c23)cc1)NN1CCCCC1 [Compound 45]
18,6.40 to 7.35 and > 6.00,COc1cccc(-c2c(-c3ccccc3)oc3ncnc(NCCc4ccc(NC(=O)Nc5ccccc5)cc4)c23)c1 [Compound 59]
19,6.40 to 7.35 and > 6.00,O=C(Nc1ccc(CCNc2ncnc3oc(-c4ccccc4)c(-c4ccccc4)c23)cc1)Nc1ccc(F)c(F)c1 [Compound 62]
20,6.40 to 7.35 and > 6.00,O=C(Nc1ccc(CCNc2ncnc3oc(-c4ccccc4)c(-c4ccccc4)c23)cc1)Nc1cc(F)cc(F)c1 [Compound 63]
21,6.40 to 7.35 and > 6.00,CCCNC(=O)Nc1ccc(CCNc2ncnc3oc(-c4ccccc4)c(-c4ccccc4)c23)cc1 [Compound 67]
22,> 6.00,CCCCCNC(=O)Nc1ccc(CCNc2ncnc3oc(-c4ccccc4)c(-c4ccccc4)c23)cc1 [Compound 68]
23,> 6.00,CCCCCCNC(=O)Nc1ccc(CCNc2ncnc3oc(-c4ccccc4)c(-c4ccccc4)c23)cc1 [Compound 69]
24,6.40 to 7.35 and > 6.00,O=C(Nc1ccc(CCNc2ncnc3oc(-c4ccccc4)c(-c4ccccc4)c23)cc1)NC1CCCC1 [Compound 70]
25,6.40 to 7.35 and > 6.00,O=C(Nc1ccc(CCNc2ncnc3oc(-c4ccccc4)c(-c4ccccc4)c23)cc1)NC1CCCCC1 [Compound 71]
26,> 6.00,COc1ccc(NC(=O)Nc2ccc(CCNc3ncnc4oc(-c5ccccc5)c(-c5ccccc5)c34)cc2)cc1 [Compound 72]
27,6.40 to 7.35 and > 6.00,O=C(Nc1ccccc1)Nc1ccc(CCNc2ncnc3oc(-c4ccccc4)c(-c4cccc(O)c4)c23)cc1 [Compound 78]
28,6.40 to 7.35 and > 6.00,O=C(Nc1ccc(CCNc2ncnc3oc(-c4ccccc4)c(-c4ccccc4)c23)cc1)Nc1cccc(F)c1F [Compound 91]
29,> 6.00,O=C(Nc1ccc(CCNc2ncnc3oc(-c4ccccc4)c(-c4ccccc4)c23)cc1)Nc1c(F)cccc1F [Compound 94]

# Further lines, the compound ahead of its results:
row,SMILES,pIC50
1,"Nc1ccc(CNc2ncnc3oc(-c4ccccc4)c(-c4ccccc4)c23)cc1 [Compound 1, N-(4-aminobenzyl)-5,6-diphenylfuro[2,3-d]pyrimidin-4-amine]",> 6.00
2,S=C(Nc1ccccc1)Nc1ccc(CCNc2ncnc3oc(-c4ccccc4)c(-c4ccccc4)c23)cc1 [Compound 13],6.40 to 7.35 and > 6.00
3,O=C(Nc1ccc(CCNc2ncnc3oc(-c4ccccc4)c(-c4ccccc4)c23)cc1)Oc1ccccc1 [Compound 17],6.40 to 7.35 and > 6.00
4,O=C(Nc1ccccc1)Oc1ccc(CCNc2ncnc3oc(-c4ccccc4)c(-c4ccccc4)c23)cc1 [Compound 18],6.40 to 7.35 and > 6.00
5,O=C(NCCCl)Nc1ccc(CCNc2ncnc3oc(-c4ccccc4)c(-c4ccccc4)c23)cc1 [Compound 19],6.40 to 7.35 and > 6.00
6,O=C(Nc1ccc(CCNc2ncnc3oc(-c4ccccc4)c(-c4ccccc4)c23)cc1)N1CCN(c2ccc(F)cc2)CC1 [Compound 22],> 6.00
7,Nc1ccc(CCOc2ncnc3oc(-c4ccccc4)c(-c4ccccc4)c23)cc1 [Compound 26],> 6.00
8,O=C(Nc1ccccc1)Nc1ccc(CCOc2ncnc3oc(-c4ccccc4)c(-c4ccccc4)c23)cc1 [Compound 27],6.40 to 7.35 and > 6.00
9,O=C(Nc1ccc(CCNc2ncnc3oc(-c4ccccc4)c(-c4ccccc4)c23)cc1)Nc1cccc(C(F)(F)F)c1 [Compound 29],6.40 to 7.35 and > 6.00
10,O=C(Nc1ccc(CCNc2ncnc3oc(-c4ccccc4)c(-c4ccccc4)c23)cc1)N1CCN(CCO)CC1 [Compound 34],> 6.00
11,COC(=O)C(Cc1ccc(NC(=O)Nc2ccccc2)cc1)Nc1ncnc2oc(-c3ccccc3)c(-c3ccccc3)c12 (centres unmarked) [Compound 52],> 6.00 and 6.40 to 7.35
12,COc1ccc(-c2c(-c3ccccc3)oc3ncnc(NCCc4ccc(NC(=O)Nc5ccccc5)cc4)c23)cc1 [Compound 56],6.40 to 7.35 and > 6.00
13,CC(=O)Nc1cccc(NC(=O)Nc2ccc(CCNc3ncnc4oc(-c5ccccc5)c(-c5ccccc5)c34)cc2)c1 [Compound 64],> 6.00
14,COc1ccc(-c2oc3ncnc(NCCc4ccc(NC(=O)Nc5ccccc5)cc4)c3c2-c2ccc(O)cc2)cc1 [Compound 66],6.40 to 7.35 and > 6.00
15,O=C(Nc1ccc(CCNc2ncnc3oc(-c4ccccc4)c(-c4ccccc4)c23)cc1)Nc1ccc2c(c1)OCO2 [Compound 73],6.40 to 7.35 and > 6.00
16,S=C(Nc1ccc(CCNc2ncnc3oc(-c4ccccc4)c(-c4ccccc4)c23)cc1)Oc1ccccc1 [Compound 74],> 6.00
17,N#C/N=C(\Nc1ccccc1)Nc1ccc(CCNc2ncnc3oc(-c4ccccc4)c(-c4ccccc4)c23)cc1 [Compound 75],> 6.00
18,O=Cc1ccc(-c2c(-c3ccccc3)oc3ncnc(NCCc4ccc(NC(=O)Nc5ccccc5)cc4)c23)o1 [Compound 76],6.40 to 7.35 and > 6.00
19,O=C(Nc1ccccc1)Nc1ccc(CCNc2ncnc3oc(-c4ccccc4)c(-c4ccc([N+](=O)[O-])cc4)c23)cc1 [Compound 77],6.40 to 7.35 and > 6.00
20,C[Si](C)(C)C#Cc1c(-c2ccccc2)oc2ncnc(NCCc3ccc(NC(=O)Nc4ccccc4)cc3)c12 [Compound 81],> 6.00
21,COc1ccc(NC(=O)Nc2ccc(CCNc3ncnc4oc(-c5ccccc5)c(-c5ccccc5)c34)cc2)cc1OC [Compound 95],> 6.00
